From ChEMBL document CHEMBL1201862, “PubChem BioAssay data set” (2004)
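Cultured in 96-well plates, cells were exposed to test compound for 48 hours across five concentrations. At the GI50, growth is halved.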 The source made the active and inactive calls. Rule as the data show it: active = GI50 up to about 1.1 µM and inactive = higher.

Legend:
Assay in all cases: NCI tumour cell line growth inhibition, 48 h
786-0 = system: 786-0
IGROV-1 = system: IGROV-1
HOP-62 = system: HOP-62
HOP-92 = system: HOP-92
NCI-H522 = system: NCI-H522
OVCAR-3 = system: OVCAR-3
SNB-78 = system: SNB-78
UACC-257 = system: UACC-257
SNB-19 = system: SNB-19
A549 = system: A549
UACC-62 = system: UACC-62
NCI-H23 = system: NCI-H23
HT-29 = system: HT-29
SF-295 = system: SF-295
SK-MEL-2 = system: SK-MEL-2
KM12 = system: KM12
SK-MEL-5 = system: SK-MEL-5
CAKI-1 = system: CAKI-1
RXF 393 = system: RXF 393
BT-549 = system: BT-549

Measured: GI50

COC(=O)C(/C(=N/N)C(=O)Nc1cc(Cl)ccc1Cl)c1nc2ccc([N+](=O)[O-])cc2nc1O (centres undefined)
inactive: 786-0 > 100 µM | IGROV-1 > 100 µM | HOP-62 > 100 µM | HOP-92 30.7 µM | NCI-H522 21.3 µM | OVCAR-3 > 100 µM | SNB-78 > 100 µM | UACC-257 > 100 µM | SNB-19 > 100 µM | A549 > 100 µM | UACC-62 > 100 µM | NCI-H23 > 100 µM | HT-29 > 100 µM | SF-295 > 100 µM | SK-MEL-2 > 100 µM | KM12 > 100 µM | SK-MEL-5 > 100 µM

O=c1[nH]nc2ccccc2c1Cc1ccccc1
inactive: 786-0 > 100 µM | IGROV-1 > 100 µM | HOP-62 > 100 µM | HOP-92 > 100 µM | CAKI-1 > 100 µM | OVCAR-3 > 100 µM | SNB-78 > 100 µM | UACC-257 > 100 µM | SNB-19 > 100 µM | A549 > 100 µM | UACC-62 > 100 µM | NCI-H23 > 100 µM | HT-29 > 100 µM | SF-295 > 100 µM | SK-MEL-2 > 100 µM | KM12 > 100 µM | SK-MEL-5 > 100 µM

CCN(N=O)C1C2(CCCC2)NC(=O)C12CCCC2 (centres undefined)
inactive: 786-0 > 100 µM | IGROV-1 > 100 µM | HOP-62 > 100 µM | OVCAR-3 > 100 µM | SNB-78 > 100 µM | UACC-257 > 100 µM | SNB-19 > 100 µM | A549 > 100 µM | RXF 393 > 100 µM | UACC-62 > 100 µM | NCI-H23 > 100 µM | HT-29 > 100 µM | SF-295 > 100 µM | KM12 > 100 µM

CC(C)C1CCC/C=C/C=C/C=C/C=C/C(OC2OC(C)C(O)C(N)C2O)CC2OC(O)(CC(O)CC(O)C(O)CCC(=O)O1)CC(O)C2C(=O)O (centres undefined)
inactive: 786-0 > 52.5 µM | IGROV-1 > 52.5 µM | HOP-62 > 52.5 µM | HOP-92 > 52.5 µM | NCI-H522 > 52.5 µM | CAKI-1 > 52.5 µM | OVCAR-3 > 52.5 µM | SNB-78 > 52.5 µM | SNB-19 > 52.5 µM | A549 > 52.5 µM | UACC-62 > 52.5 µM | HT-29 > 52.5 µM | SF-295 > 52.5 µM | SK-MEL-5 > 52.5 µM

C=C1C2CC[C@@](C)(O)C2[C@H]2OC(=O)C(=C)[C@@H]2C[C@H]1O (some centres undefined)
inactive: 786-0 16.1 µM | IGROV-1 28.4 µM | HOP-62 30.7 µM | HOP-92 27.5 µM | NCI-H522 14.7 µM | CAKI-1 12.1 µM | OVCAR-3 20.4 µM | BT-549 10.3 µM | UACC-257 16.3 µM | SNB-19 48.6 µM | A549 29.3 µM | RXF 393 22.1 µM | UACC-62 16 µM | NCI-H23 17.7 µM | HT-29 16.1 µM | SF-295 54.6 µM | SK-MEL-2 20.9 µM | KM12 19.7 µM | SK-MEL-5 8.38 µM

CCOc1ccc2c(c1)[n+]([O-])c(-c1nc3ccccc3s1)c(N)[n+]2[O-]
inactive: 786-0 48.4 µM | IGROV-1 75.9 µM | HOP-62 88.7 µM | HOP-92 26.2 µM | NCI-H522 21.6 µM | CAKI-1 83.4 µM | OVCAR-3 38.4 µM | SNB-78 > 100 µM | UACC-257 42.1 µM | SNB-19 48.1 µM | A549 61.8 µM | UACC-62 64.7 µM | NCI-H23 25.6 µM | HT-29 58.7 µM | SF-295 50 µM | SK-MEL-2 52.8 µM | KM12 60.7 µM | SK-MEL-5 30.3 µM
